Six compounds from patent publication US4001325A, “α-Chloroacetanilide selective herbicides” (Diamond Shamrock Corporation, priority 1973, dated 1977) can be followed below.

In data set [1] the test system is grass species: red millet, green foxtail, Japanese millet. Briefly: Greenhouse preemergence herbicide test, grasses. To be noted: pre-emergence, 336 h, two weeks after treatment; for pest or weed control at 140.106 g/ha: 0.125 lb/A; for pest or weed control at 280.212 g/ha: 0.25 lb/A; for pest or weed control at 560.425 g/ha: 0.5 lb/A; for pest or weed control at 1120.85 g/ha: 1.0 lb/A; for pest or weed control at 69.4927 g/ha: 0.062 lb/A. The class given is in vivo, Panicum milliacem, Setaria viridis, Echinochloa frumentacea. How it is done:
(§1) To illustrate the preemergence herbicidal efficiency of the alkyl-substituted 2-chloro-N-propargylacetanilides of this invention, test formulations are prepared of each compound by mixing 20 ml of an acetone solution containing 0.125 g of chemical with 20 ml of water containing 0.01 g of Triton X-155 surfactant. The resultant formulations contain 3125 ppm of test compound, 50% by volume of acetone and 0.025% by weight of surfactant. Appropriate lower concentrations are obtained by diluting this formulation with surfactant-acetone solution so that the concentration of adjuvants is maintained at the original levels.
(§2) Seeds of three broadleaf and three grass species are planted in soil contained in 10 inch × 8 inch × 3 inch aluminum pans filled with 1.5 inches of composted soil. The broadleaf species are pigweed (Amaranthus retroflexus), velvetleaf (Abutilon theophrasti), and morningglory (Ipomea coccinea); the grasses are red millet (Panicum milliacem), green foxtail (Setaria viridis) and Japanese millet (Echinochloa frumentacea).
(§3) The seeded pans are sprayed so that the soil surface is uniformly covered with dilutions of the stock formulation providing dosage rates of the test compounds as shown in the following table.
(§4) Two weeks after treatment, percent control (plant kill) at each dosage rate is estimated with results as follows: […]

Data set [2] deals with broadleaf species: pigweed, velvetleaf, morningglory. Briefly: Greenhouse preemergence herbicide test, broadleaves. To be noted: two weeks after treatment, 20160 min. The class given is in vivo. Here is the method: as §1, §2, §3, §4
The next data set has as its system Cotton. As to the kind of experiment: Field preemergence test, phytotoxic effects on crop. The format is in vivo, cotton (Coker 413). From the text: (§5) Test plots of fertilized, light sandy soil containing 0.7% organic matter are sprayed uniformly with aqueous suspensions prepared from emulsifiable concentrates containing 12%, by weight, of the test chemicals diluted to provide dosage rates of the test compounds corresponding to 2.0, 1.0, 0.5, and 0.25 pound per acre (lb/A). The plots are then sown with seeds of the following crop plants: sweet corn, cotton (Coker 413) and soybeans, var. Davis. Seeds of the following weed plants are planted: redroot pigweed, prickly sida, common lambsquarter, goosegrass and giant foxtail.
(§6) Three to four weeks after planting, percent control (plant kill) of the test plants is estimated, from a rating of 0 which denotes no injury to the plant up to 100 which denotes complete destruction. The herbicidal action of the test compounds obtained on the weed species is as follows:
(§7) Phytotoxic effects observed on the crop species is estimated with results as follows: […]

A further data set concerns Corn. The data set is described as above. The class given is in vivo, sweet corn.
Description: as §5, §6, §7

Another data set deals with Soybeans. The data set is described as above. The format is in vivo, var. Davis.
Description: as §5, §6, §7

Another data set concerns Redroot Pigweed. As to the kind of experiment: Field preemergence test, weed control. The class given is in vivo. To be noted: 3-4 weeks after planting.
Description: as §5
(§8) Three to four weeks after planting, percent control (plant kill) of the test plants is estimated, from a rating of 0 which denotes no injury to the plant up to 100 which denotes complete destruction. The herbicidal action of the test compounds obtained on the weed species is as follows: […]

Another data set concerns Goosegrass. Briefly: Field preemergence test, weed control. The format is in vivo. The following applies: 3-4 weeks after planting.
Description: as §5, §8

The subject of a further data set is Prickly Sida. As to the kind of experiment: Field preemergence test, weed control. The following applies: 3-4 weeks after planting. The class given is in vivo.
Description: as §5, §8

In the next data set the test system is Common Lambsquarter. Briefly: Field preemergence test, weed control. The class given is in vivo. The following applies: 3-4 weeks after planting.
Description: as §5, §8

For a further data set, the system named is Giant Foxtail. As to the kind of experiment: Field preemergence test, weed control. The class given is in vivo. To be noted: 3-4 weeks after planting.
Description: as §5, §8

On to `C#CCN(C(=O)CCl)c1c(CC)cccc1C(C)C` [Example 14, 2-Chloro-2'-ethyl-6'-isopropyl-N-propargylacetanilide], for which, in data set [1], the pest or weed control at 140.106 g/ha came out at 40%, the pest or weed control at 280.212 g/ha was determined as 40%, the pest or weed control at 560.425 g/ha came to 80% and the pest or weed control at 1120.85 g/ha amounted to 100%. Further, the “% Control, Broadleaves” value in [2] (1.0 lb/A) was 0%.
In [1], `C#CCN(C(=O)CCl)c1c(C)cccc1C(C)C` [Example 12, 2-Chloro-2'-methyl-6'-isopropyl-N-propargylacetanilide] came in with a pest or weed control at 69.4927 g/ha of 45%, a pest or weed control at 140.106 g/ha of 65%, a pest or weed control at 560.425 g/ha of 70% and a pest or weed control at 1120.85 g/ha of 90%. This compound also showed a pest or weed control at 2241.7 g/ha in [1] (2.0 lb/A) of 90%. In [2] (1.0 lb/A), the “% Control, Broadleaves” value amounted to 0%. Moreover, the “% Control, Broadleaves” value in [2] (2.0 lb/A) was 40%.
On to `C#CCN(C(=O)CCl)c1ccccc1CC` [Example 11, 2-Chloro-2'-ethyl-N-propargylacetanilide], for which the “% Crop Kill, Cotton” value in the data set with Cotton (0.5 lb/A) came to 0%; in the data set with Cotton (1.0 lb/A), 10%; with Cotton (2.0 lb/A), 18%. Moreover, the pest or weed control at 69.4927 g/ha in [1] is 0%. In data set [1], this compound had a pest or weed control at 140.106 g/ha of 55%. Also, the pest or weed control at 280.212 g/ha in data set [1] was 80%. The pest or weed control at 560.425 g/ha in data set [1] stood at 90%. In data set [1], this compound came in with a pest or weed control at 1120.85 g/ha of 95%. The “% Control, Broadleaves” value in [2] (0.5 lb/A) was determined as 0%; in data set [2] (1.0 lb/A), 35%. Also, the “% Crop Kill, Corn” value with Corn (0.5 lb/A), in the data set on Corn (1.0 lb/A) and in the data set on Corn (2.0 lb/A) was 0% each time. Moreover, the results for the “% Crop Kill, Soybeans” value in the data set with Soybeans (0.5 lb/A), with Soybeans (1.0 lb/A) and with Soybeans (2.0 lb/A) were 0%, 0% and 3%, respectively. The “% Weed Control, Redroot Pigweed” value is given as 33% with Redroot Pigweed (0.25 lb/A), 75% in the data set on Redroot Pigweed (0.5 lb/A), 80% with Redroot Pigweed (1.0 lb/A) and 98% in the data set with Redroot Pigweed (2.0 lb/A). In addition, the “% Weed Control, Goosegrass” value in the data set on Goosegrass (0.25 lb/A) was 62%; in the data set with Goosegrass (0.5 lb/A), 82%; with Goosegrass (1.0 lb/A), 100%; in the data set on Goosegrass (2.0 lb/A), 100%. For the same compound, the “% Weed Control, Prickly Sida” value in the data set with Prickly Sida (0.25 lb/A) is reported as 0%; in the data set on Prickly Sida (0.5 lb/A), 13%; with Prickly Sida (1.0 lb/A), 33%; in the data set on Prickly Sida (2.0 lb/A), 57%. The “% Weed Control, Common Lambsquarter” value in the data set on Common Lambsquarter (0.25 lb/A) is on record as 50%; in the data set on Common Lambsquarter (0.5 lb/A) it was 70%; in the data set with Common Lambsquarter (1.0 lb/A) it was 100%; in the data set on Common Lambsquarter (2.0 lb/A), 100%. Also, the “% Weed Control, Giant Foxtail” value amounted to 0% in the data set on Giant Foxtail (0.25 lb/A), 23% with Giant Foxtail (0.5 lb/A), 45% in the data set with Giant Foxtail (1.0 lb/A) and 90% in the data set on Giant Foxtail (2.0 lb/A).
For `C#CCN(C(=O)CCl)c1ccccc1C(C)C` [Example 16, 2-Chloro-2'-isopropyl-N-propargylacetanilide], in data set [1], the pest or weed control at 280.212 g/ha is 80%, the pest or weed control at 560.425 g/ha was determined as 90% and the pest or weed control at 1120.85 g/ha stood at 100%. The “% Control, Broadleaves” value in data set [2] (1.0 lb/A) was determined as 0%.
For the compound `C#CCN(C(=O)CCl)c1c(C(C)C)cccc1C(C)C` [Example 13, 2-Chloro-2',6'-diisopropyl-N-propargylacetanilide], in data set [1], the pest or weed control at 140.106 g/ha came out at 20%, the pest or weed control at 280.212 g/ha is 50%, the pest or weed control at 560.425 g/ha was found to be 90% and the pest or weed control at 1120.85 g/ha worked out at 90%. For the same compound, in data set [2] (1.0 lb/A), the “% Control, Broadleaves” value was 0%.
In the case of `C#CCN(C(=O)CCl)c1ccccc1C` [Example 10, 2-Chloro-2'-methyl-N-propargylacetanilide], the results for the “% Crop Kill, Cotton” value in the data set with Cotton (0.5 lb/A), with Cotton (1.0 lb/A) and in the data set on Cotton (2.0 lb/A) were 0%, 3% and 3%, respectively. Further, the pest or weed control at 69.4927 g/ha in [1] is 0%. The pest or weed control at 140.106 g/ha in [1] worked out at 55%. The pest or weed control at 280.212 g/ha in data set [1] worked out at 85%. Further, in [1], the pest or weed control at 560.425 g/ha is 80%. For the same compound, the pest or weed control at 1120.85 g/ha in data set [1] turned out to be 90%. The “% Control, Broadleaves” value turned out to be 0% in [2] (0.062 lb/A); 0% in data set [2] (0.125 lb/A); 0% in [2] (0.25 lb/A); 0% in [2] (0.5 lb/A); 35% in data set [2] (1.0 lb/A). The “% Crop Kill, Corn” value in the data set on Corn (0.5 lb/A), in the data set on Corn (1.0 lb/A) and in the data set on Corn (2.0 lb/A) was 0% each time. Moreover, the “% Crop Kill, Soybeans” value with Soybeans (0.5 lb/A), in the data set on Soybeans (1.0 lb/A) and in the data set with Soybeans (2.0 lb/A) was 0% each time. The “% Weed Control, Redroot Pigweed” value in the data set on Redroot Pigweed (0.25 lb/A) came out at 0%; in the data set with Redroot Pigweed (0.5 lb/A), 27%; with Redroot Pigweed (1.0 lb/A), 45%; in the data set on Redroot Pigweed (2.0 lb/A) it was 67%. The “% Weed Control, Goosegrass” value with Goosegrass (0.25 lb/A) worked out at 53%; in the data set on Goosegrass (0.5 lb/A), 78%; in the data set on Goosegrass (1.0 lb/A), 92%; with Goosegrass (2.0 lb/A), 97%. In addition, the “% Weed Control, Prickly Sida” value in the data set on Prickly Sida (0.25 lb/A) is given as 0%; with Prickly Sida (0.5 lb/A), 0%; in the data set with Prickly Sida (1.0 lb/A), 0%; with Prickly Sida (2.0 lb/A), 25%. Moreover, the “% Weed Control, Common Lambsquarter” value in the data set with Common Lambsquarter (0.25 lb/A) is on record as 40%; in the data set on Common Lambsquarter (0.5 lb/A), 60%; with Common Lambsquarter (1.0 lb/A) it was 95%; with Common Lambsquarter (2.0 lb/A), 95%. The “% Weed Control, Giant Foxtail” value was found to be 0% with Giant Foxtail (0.25 lb/A), 20% in the data set on Giant Foxtail (0.5 lb/A), 70% in the data set on Giant Foxtail (1.0 lb/A) and 80% in the data set with Giant Foxtail (2.0 lb/A).

Usually pest or weed control stands for the degree to which the test organism was suppressed or injured, in per cent.
